Test results published in ChEMBL document CHEMBL1148891, “New syntheses of tetrazolylmethylphenylalanine and O-malonyltyrosine as pTyr mimetics for the design of STAT3 dimerization inhibitors” (Bioorg Med Chem Lett, 2007).
Starred links: 1 amine or outer side, 2 acyl side, 3 side chain; linkers in the order of their positions; H or OH if unused. Non-standard residues stand in square brackets, D forms with d. Residues, ends and D or L forms follow the SMILES beside them. Phe(4-tetrazol-5-yl) = N[C@@H](Cc1ccc(-c2nnn[nH]2)cc1)C(=O)O; X1 = O=C([C@H](Cc1ccc(Cc2nn[nH]n2)cc1)N[*:1])[*:2]

Target: Signal transducer and activator of transcription 3 (Homo sapiens, UniProt P40763)
Sequence (P40763 whole entry): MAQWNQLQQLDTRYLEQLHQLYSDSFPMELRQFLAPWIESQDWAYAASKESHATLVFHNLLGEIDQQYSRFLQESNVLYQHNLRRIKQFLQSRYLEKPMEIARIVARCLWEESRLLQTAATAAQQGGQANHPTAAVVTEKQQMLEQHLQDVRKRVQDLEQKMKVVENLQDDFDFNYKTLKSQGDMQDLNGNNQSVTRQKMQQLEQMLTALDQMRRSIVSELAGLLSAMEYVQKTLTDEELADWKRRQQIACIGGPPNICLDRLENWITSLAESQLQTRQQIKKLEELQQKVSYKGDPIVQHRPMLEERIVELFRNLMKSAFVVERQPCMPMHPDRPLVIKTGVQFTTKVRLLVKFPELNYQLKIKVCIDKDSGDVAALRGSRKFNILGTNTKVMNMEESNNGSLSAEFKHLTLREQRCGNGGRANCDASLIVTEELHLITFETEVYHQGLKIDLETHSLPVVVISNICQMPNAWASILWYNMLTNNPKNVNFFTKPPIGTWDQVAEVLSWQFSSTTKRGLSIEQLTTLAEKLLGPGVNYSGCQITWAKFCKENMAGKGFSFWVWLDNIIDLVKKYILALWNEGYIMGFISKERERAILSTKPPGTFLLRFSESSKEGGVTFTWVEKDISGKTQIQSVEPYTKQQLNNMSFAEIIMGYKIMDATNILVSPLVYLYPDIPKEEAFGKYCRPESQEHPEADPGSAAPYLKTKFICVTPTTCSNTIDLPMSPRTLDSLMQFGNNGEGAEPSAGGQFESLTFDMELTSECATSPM
Assay: Inhibition of STAT3 dimer DNA binding activity by ELISA after 30 mins

Structure (SMILES)	IC50
CC(=O)N[C@@H](Cc1ccc(-c2nnn[nH]2)cc1)C(=O)N[C@@H](CC(C)C)C(=O)N1CCC[C@H]1C(=O)N[C@@H](CCC(N)=O)C(=O)N[C@H](C(=O)N[C@H](C(=O)O)C(C)C)[C@@H](C)O (Ac-[Phe(4-tetrazol-5-yl)]LPQTV-OH)	> 800 nM
CC(=O)N[C@@H](Cc1ccc(Cc2nn[nH]n2)cc1)C(=O)N[C@@H](CC(C)C)C(=O)N1CCC[C@H]1C(=O)N[C@@H](CCC(N)=O)C(=O)N[C@H](C(=O)N[C@H](C(=O)O)C(C)C)[C@@H](C)O (Ac-[X1]LPQTV-OH)	> 1000 nM
